Assay results taken from US9718808B2, “Inhibitors of the renal outer medullary potassium channel” (Merck Sharp & Dohme Corp., priority 2014, dated 2017).

Target: ROMK (Kir1.1) channel (Homo sapiens (Human), UniProt P48048)
Assay: Thallium Flux Assay
Type: cell-based
Description: A Thallium Flux Assay was performed on each of the final product compounds of the Examples. This assay has been described previously; see, e.g., PCT Published Application WO 2013/062900.

Chain of ROMK (Kir1.1) channel (P48048 whole entry): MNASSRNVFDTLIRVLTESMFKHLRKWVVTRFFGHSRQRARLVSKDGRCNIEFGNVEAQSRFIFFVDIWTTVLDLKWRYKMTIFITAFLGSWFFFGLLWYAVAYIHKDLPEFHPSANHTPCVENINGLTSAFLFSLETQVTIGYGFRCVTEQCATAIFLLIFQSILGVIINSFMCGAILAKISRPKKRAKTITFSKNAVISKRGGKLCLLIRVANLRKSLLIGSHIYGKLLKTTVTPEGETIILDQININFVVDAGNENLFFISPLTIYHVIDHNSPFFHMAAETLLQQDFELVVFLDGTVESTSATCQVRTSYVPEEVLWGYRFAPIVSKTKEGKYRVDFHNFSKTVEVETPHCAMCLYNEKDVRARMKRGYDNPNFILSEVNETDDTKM

Row | Compound | IC50 [µM]
1 | CC1=C(N2CC[C@]3(CC[C@@](C)(N(C)Cc4ccc(-n5cnnn5)nn4)CC3)C2=O)COC1=O [Example 116] | 0.024
2 | CC1=C(N2CC[C@]3(CC[C@@H](N(C)Cc4ccc5c(c4)Cn4nnnc4-5)CC3)C2=O)COC1=O [Example 90] | 0.022
3 | CC1=C(N2CC[C@]3(CC[C@H](N(C)Cc4cnc(-n5cnnn5)cn4)CC3)C2=O)COC1=O [Example 91] | 0.69
4 | CC1=C(N2CC[C@]3(CC[C@H](NCc4ccc(-n5ncnn5)cc4)CC3)C2=O)COC1=O [Example 40, (5s,8s)-2-(4-methyl-5-oxo-2,5-dihydrofuran-3-yl)-8-{[4-(2H-tetrazol-2-yl)benzyl]amino}-2-azaspiro[4.5]decan-1-one] | 0.11
5 | CC1=C(N2CC[C@]3(CC[C@@H](NCc4ccc(-n5ncnn5)cc4)CC3)C2=O)COC1=O [Example 41, (5r,8r)-2-(4-methyl-5-oxo-2,5-dihydrofuran-3-yl)-8-{[4-(2H-tetrazol-2-yl)benzyl]amino}-2-azaspiro[4.5]decan-1-one] | 0.0033
6 | CC1=C(N2CC[C@]3(CC[C@@H](N[C@H](C)c4ccc(-n5cnnn5)nn4)CC3)C2=O)COC1=O [Example 15, (5R,8r)-2-(4-methyl-5-oxo-2,5-dihydrofuran-3-yl)-8-({(1R)-1-[6-(1H-tetrazol-1-yl)pyridazin-3-yl]ethyl}amino)-2-azaspiro[4.5]decan-1-one] | 0.092
7 | CC1=C(N2CC[C@]3(CC[C@@H](NCc4ccc(-n5cnnn5)cn4)CC3)C2=O)COC1=O [Example 7B, (5r,8r)-2-(4-methyl-5-oxo-2,5-dihydrofuran-3-yl)-8-({[5-(1H-tetrazol-1-yl)pyridin-2-yl]methyl}amino)-2-azaspiro[4.5]decan-1-one] | 0.71
8 | CCN(Cc1ccc(-n2cnnn2)cn1)[C@H]1CC[C@]2(CCN(C3=C(C)C(=O)OC3)C2=O)CC1 [Example 138] | 0.034
9 | CC1=C(N2CC[C@]3(CC[C@@H](NCc4ccc5c(c4F)Cn4nnnc4-5)CC3)C2=O)COC1=O [Example 59, (5r,8r)-8-(((6-fluoro-5H-tetrazolo[5,1-a]isoindol-7-yl)methyl)amino)-2-(4-methyl-5-oxo-2,5-dihydrofuran-3-yl)-2-azaspiro[4.5]decan-1-one] | 0.006
10 | CC1=C(N2CC[C@]3(CC[C@@H](N(C)Cc4nnc(-n5cnnn5)cc4C)CC3)C2=O)COC1=O [Example 107] | 0.022
11 | CC1=C(N2CC[C@]3(CC[C@@H](N[C@@H](C)c4ccc(-n5cnnn5)nc4)CC3)C2=O)COC1=O [Example 9, (5S,8r)-2-(4-methyl-5-oxo-2,5-dihydrofuran-3-yl)-8-({(1S)-1-[6-(1H-tetrazol-1-yl)pyridin-3-yl]ethyl}amino)-2-azaspiro[4.5]decan-1-one] | 0.034
12 | CC1=C(N2C(=O)[C@]3(CC[C@H](NCc4ccc5c(c4)Cn4nnnc4-5)CC3)C[C@@H]2C)COC1=O [Example 56, (3S,5r,8S)-8-(((5H-tetrazolo[5,1-a]isoindol-7-yl)methyl)amino)-3-methyl-2-(4-methyl-5-oxo-2,5-dihydrofuran-3-yl)-2-azaspiro[4.5]decan-1-one] | 0.52
13 | CC1=C(N2CC[C@]3(CC[C@H](N(C)Cc4ccc(-n5ncnn5)cc4)CC3)C2=O)COC1=O [Example 111] | 0.3
14 | CC1=C(N2CC[C@]3(CC[C@@H](N(C)Cc4ncc(-n5cnnn5)nc4C)CC3)C2=O)COC1=O [Example 125] | 0.022
15 | CC1=C(N2CC[C@]3(CC[C@H](NCc4ccc(-n5ncnn5)nn4)CC3)C2=O)COC1=O [Example 74, (5s,8s)-8-(((6-(2H-tetrazol-2-yl)pyridazin-3-yl)methyl)amino)-2-(4-methyl-5-oxo-2,5-dihydrofuran-3-yl)-2-azaspiro[4.5]decan-1-one] | 0.21
16 | CC1=C(N2CC[C@]3(CC[C@@](C)(NCc4ccc(-n5cnnn5)nn4)CC3)C2=O)COC1=O [Example 48, (5r,8r)-8-methyl-2-(4-methyl-5-oxo-2,5-dihydrofuran-3-yl)-8-({[6-(1H-tetrazol-1-yl)pyridazin-3-yl]methyl}amino)-2-azaspiro[4.5]decan-1-one] | 0.0077
17 | CC1=C(N2CC[C@]3(CC[C@](C)(N(C)Cc4cnc(-n5cnnn5)cn4)CC3)C2=O)COC1=O [Example 127] | 0.091
18 | CC1=C(N2C(=O)[C@]3(CC[C@H](N(C)Cc4ccc5c(c4)Cn4nnnc4-5)CC3)C[C@@H]2C)COC1=O [Example 120] | 0.043
19 | CC1=C(N2CC[C@]3(CC[C@@H](N(C)Cc4ccc5c(c4F)Cn4nnnc4-5)CC3)C2=O)COC1=O [Example 121] | 0.023
20 | CC1=C(N2CC[C@]3(CC[C@@H](NCc4ccc5c(c4)CCc4nnnn4-5)CC3)C2=O)COC1=O [Example 51, (5r,8r)-8-(((4,5-dihydrotetrazolo[1,5-a]quinolin-7-yl)methyl)amino)-2-(4-methyl-5-oxo-2,5-dihydrofuran-3-yl)-2-azaspiro[4.5]decan-1-one] | 0.0043
21 | CC1=C(N2CC[C@]3(CC[C@@H](N[C@@H](C)c4ccc(-n5cnnn5)cn4)CC3)C2=O)COC1=O [Example 29, (5S,8r)-2-(4-methyl-5-oxo-2,5-dihydrofuran-3-yl)-8-({(1S)-1-[5-(1H-tetrazol-1-yl)pyridin-2-yl]ethyl}amino)-2-azaspiro[4.5]decan-1-one] | 0.02
22 | CC1=C(N2CCC3(CCC(N(C)C[C@H](O)c4ccc5c(c4C)COC5=O)CC3)C2=O)COC1=O (stereo partly drawn) [Example 124] | 0.064
23 | CC1=C(N2CC[C@]3(CC[C@H](N(C)[C@@H](CO)c4ccc(-n5cnnn5)nc4)CC3)C2=O)COC1=O [Example 101] | 0.29
24 | C[C@@H]1C[C@]2(CC[C@H](NCc3ccc4c(c3)Cn3nnnc3-4)CC2)C(=O)N1C1=CC(=O)OC1 [Example 65, (3R,5s,8S)-8-(((5H-tetrazolo[5,1-a]isoindol-7-yl)methyl)amino)-3-methyl-2-(5-oxo-2,5-dihydrofuran-3-yl)-2-azaspiro[4.5]decan-1-one] | 0.019
25 | CC1C[C@]2(CC[C@@H](NCc3cnc(-n4cnnn4)cn3)CC2)C(=O)N1C1=CC(=O)OC1 (stereo partly drawn) [Example 49, (5r,8r)-3-methyl-2-(5-oxo-2,5-dihydrofuran-3-yl)-8-({[5-(1H-tetrazol-1-yl)pyrazin-2-yl]methyl}amino)-2-azaspiro[4.5]decan-1-one] | 0.24
26 | CC1=C(N2CC[C@]3(CC[C@@H](N(C)Cc4ccc(-n5cnnn5)nc4)CC3)C2=O)COC1=O [Example 84] | 0.74
27 | CC1=C(N2CC[C@]3(CC[C@H](N(C)CCc4ccc5c(c4)COC5=O)CC3)C2=O)COC1=O [Example 105] | 0.15
28 | CC1=C(N2CC[C@]3(CC[C@@H](N(C)Cc4ccc(-n5ncnn5)nn4)CC3)C2=O)COC1=O [Example 113] | 0.036
29 | CC1=C(N2CC[C@]3(CC[C@@H](N(C)[C@H](CO)c4ccc(-n5cnnn5)nc4)CC3)C2=O)COC1=O [Example 86] | 0.48
30 | CC1=C(N2CC[C@]3(CC[C@@H](N(CCO)Cc4ccc(-n5cnnn5)nc4)CC3)C2=O)COC1=O [Example 130, (5r,8r)-8-(((6-(1H-tetrazol-1-yl)pyridin-3-yl)methyl)(2-hydroxyethyl)amino)-2-(4-methyl-5-oxo-2,5-dihydrofuran-3-yl)-2-azaspiro[4.5]decan-1-one] | 0.03
